pEC50: −log10 of the molar value. Like-named read-outs stand apart in the source and are kept apart here. Residues, ends and D or L forms follow the SMILES beside them.
Experiments:
MCH-2R = MCH-2R (Homo sapiens, UniProt Q969V1); assay: Aequorin bioluminescence functional assay, 293AEQ17/MCH-2R cells; assay type: cell-based; parameters: expressed in transfected cells; MCH-2R Activation %: concentration or dose not given beside the values; conditions: for MCH-2R Activation %: human MCH = 100; for pEC50: aequorin, 293AEQ17/MCH-2R cells
Text: (§1) The aequorin bioluminescence assay is a reliable test for identifying G-protein-coupled receptors that couple through the G protein subunit family consisting of Gq and G11. Gq and G11 coupling leads to the activation of phospholipase C, mobilization of intracellular calcium, and activation of protein kinase C.
Stable cell lines expressing either the MCH-1R or the MCH-2R and the aequorin reporter protein were used.
(§2) The cells were harvested, washed once in ECB medium, and resuspended to 500,000 cells/mL. 100 μL of cell suspension (corresponding to 5×10^4 cells) was then injected into the test plate containing the hMCH peptides, and the integrated light emission was recorded over 30 seconds, in 0.5-s units. 20 μL of lysis buffer (0.1% final Triton X-100 concentration) was then injected and the integrated light emission recorded over 10 seconds, in 0.5-s units. The “fractional response” values for each well were calculated by taking the ratio of the integrated response to the initial challenge to the total integrated luminescence including the Triton X-100 lysis response.

MCH-1R [1] = molecular target: T1, MCH-1R (Homo sapiens, UniProt Q99705); assay: Aequorin bioluminescence functional assay, 293AEQ17/MCH-1R cells; assay type: cell-based; parameters: expressed in transfected cells; conditions: for MCH-1R Activation %: human MCH = 100, activation at 10 μM concentration
Method: as §1
Stable cell lines expressing either the MCH-1R or the MCH-2R and the aequorin reporter protein were used. The assay was performed using a Luminoskan RT luminometer (Labsystems Inc., Gaithersburg, Md.) controlled by custom software written for a Macintosh PowerPC 6100.
as §2

MCH-1R [2] = molecular target: T1, MCH-1R
Method: For transient expression, COS-7 cells were cultured in Dulbecco's modified Eagle medium (Gibco BRL, Rockville, Md.) with 10% heat inactivated fetal calf serum.
A suspension of 7×10^6 COS-7 cells were transfected with 20 μg of pCI-neo/MCH-2R plasmid by electroporation and cells were harvested after 60-72 hours. Membranes were prepared from transient and stable transfectants by hypotonic lysis, frozen in liquid nitrogen, and stored at −80° C.
Assays were optimized with respect to membrane preparations: for CHO/MCH-1R membranes, 1 μg of membranes per well yielded a>6× specific binding window and for COS or CHO MCH-2R membranes, 8 μg of membrane protein yielded a window of about 3×.
Specific binding is defined as the difference between total binding and non-specific binding conducted in the presence of 500 nM unlabeled hMCH. […] After equilibrating at room temperature for 3 hours, the plates were read in a TopCount (Packard, Meriden, Conn.). IC50 calculations were performed using Prism 3.0 (GraphPad. Software, San Diego, Calif.). The IC50 values were measured in three different experiments.

[3] = aequorin, 293AEQ17/MCH-1R cells, read-out: MCH-1R EC50

T1 sequence (Q99705 whole entry): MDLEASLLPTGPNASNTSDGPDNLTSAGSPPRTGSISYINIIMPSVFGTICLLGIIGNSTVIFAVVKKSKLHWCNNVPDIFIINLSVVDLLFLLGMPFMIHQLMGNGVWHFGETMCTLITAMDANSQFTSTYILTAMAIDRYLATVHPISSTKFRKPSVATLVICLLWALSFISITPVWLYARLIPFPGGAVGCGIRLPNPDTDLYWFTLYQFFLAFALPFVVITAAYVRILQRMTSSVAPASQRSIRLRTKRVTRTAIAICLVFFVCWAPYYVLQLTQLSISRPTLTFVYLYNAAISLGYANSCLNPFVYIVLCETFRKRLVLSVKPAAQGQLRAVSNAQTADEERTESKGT
Sequence of MCH-2R (Q969V1 whole entry): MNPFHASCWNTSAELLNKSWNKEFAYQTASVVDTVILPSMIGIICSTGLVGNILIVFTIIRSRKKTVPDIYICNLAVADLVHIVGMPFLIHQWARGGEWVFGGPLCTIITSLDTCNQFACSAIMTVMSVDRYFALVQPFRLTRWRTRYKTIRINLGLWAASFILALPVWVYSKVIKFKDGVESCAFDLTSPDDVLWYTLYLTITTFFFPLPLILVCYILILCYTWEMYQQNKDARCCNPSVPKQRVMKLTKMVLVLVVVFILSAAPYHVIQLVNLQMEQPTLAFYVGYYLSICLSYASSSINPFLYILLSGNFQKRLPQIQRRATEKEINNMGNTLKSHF

Compound	MCH-2R Activation % (MCH-2R) [%]	MCH-1R Activation % (MCH-1R [1]) [%]	Selectivity 2/1 (MCH-2R/MCH-1R IC50 binding ratio) (MCH-1R [2])	Selectivity 2/1 (MCH-2R/MCH-1R EC50 activity ratio) (MCH-1R [1])	pEC50 (MCH-1R [1]; [3])	fold lower binding affinity for hMCH-1R (MCH-1R [2]; relative to the D-Arg^6 compound)	agonism at hMCH-2R in words (MCH-2R)	pEC50 (MCH-2R)	agonism at hMCH-1R in words (MCH-1R [1])	pEC50 (MCH-1R [1])	fold more selective as agonist for hMCH-1R than hMCH-2R (MCH-1R [1])	fold lower agonist activity at hMCH-1R (MCH-1R [1]; relative to Ac-hMCH(6-16)-NH2) [fold]
CSCC[C@@H]1NC(=O)[C@@H](NC(=O)[C@H](CCCNC(=N)N)NC(=O)[C@H](CC(C)C)NC(=O)[C@H](CCSC)NC(=O)[C@H](CC(=O)O)NC(=O)[C@H](Cc2ccccc2)NC(=O)[C@@H](N)CC(=O)O)CSSC[C@@H](C(=O)N[C@@H](Cc2c[nH]c3ccccc23)C(=O)N[C@@H](CCC(N)=O)C(=O)N[C@H](C(=O)O)C(C)C)NC(=O)[C@@H]2CCCN2C(=O)[C@H](CCCNC(=N)N)NC(=O)[C@H](Cc2ccc(O)cc2)NC(=O)[C@H](C(C)C)NC(=O)[C@H](CCCNC(=N)N)NC(=O)CNC(=O)[C@H](CC(C)C)NC1=O [SEQ. ID. NO. 1, human MCH, reference compound]	100	100	–	–	–	–	–	–	–	–	–	–
CSCC[C@@H]1NC(=O)[C@@H](NC(=O)[C@H](CCCNC(=N)N)NC(C)=O)CSSC[C@@H](C(N)=O)NC(=O)[C@@H]2CCCN2C(=O)[C@H](CCCNC(=N)N)NC(=O)[C@H](Cc2ccc(O)cc2)NC(=O)[C@H](C(C)C)NC(=O)[C@H](CCCNC(=N)N)NC(=O)CNC(=O)[C@H](CC(C)C)NC1=O [SEQ. ID. NO. 2, Ac-hMCH(6-16)-NH2, reference compound]	–	99	–	–	–	–	–	–	–	–	–	–
CSCC[C@@H]1NC(=O)[C@@H](NC(=O)[C@@H](C)NC(C)=O)CSSC[C@@H](C(N)=O)NC(=O)[C@@H]2CCCN2C(=O)[C@H](CCCNC(=N)N)NC(=O)[C@H](Cc2ccc(O)cc2)NC(=O)[C@H](C(C)C)NC(=O)[C@H](CCCNC(=N)N)NC(=O)CNC(=O)[C@H](CC(C)C)NC1=O [SEQ. ID. NO. 6]	51	109	3500	30	6.80	–	–	–	–	–	–	–
CSCC[C@@H]1NC(=O)[C@@H](NC(=O)[C@@H](Cc2ccccc2)NC(C)=O)CSSC[C@@H](C(N)=O)NC(=O)[C@@H]2CCCN2C(=O)[C@H](CCCNC(=N)N)NC(=O)[C@H](Cc2ccc(O)cc2)NC(=O)[C@H](C(C)C)NC(=O)[C@H](CCCNC(=N)N)NC(=O)CNC(=O)[C@H](CC(C)C)NC1=O [SEQ. ID. NO. 9]	79	117	1380	7	7.18	–	–	–	–	–	–	–
CSCC[C@@H]1NC(=O)[C@@H](NC(=O)[C@@H](CCCNC(N)=O)NC(C)=O)CSSC[C@@H](C(N)=O)NC(=O)[C@@H]2CCCN2C(=O)[C@H](CCCNC(=N)N)NC(=O)[C@H](Cc2ccc(O)cc2)NC(=O)[C@H](C(C)C)NC(=O)[C@H](CCCNC(=N)N)NC(=O)CNC(=O)[C@H](CC(C)C)NC1=O [SEQ. ID. NO. 14]	68	91	43	0.3	6.04	about 30 fold	lower than those of the L-Arg^6 compound	6.51	lower than those of the L-Arg^6 compound	–	–	–
CSCC[C@@H]1NC(=O)[C@@H](NC(=O)[C@H](CCCNC(=N)N)NC(C)=O)CSSC[C@@H](C(N)=O)NC(=O)[C@@H]2CCCN2C(=O)[C@H](CCCNC(=N)N)NC(=O)[C@H](Cc2ccc(O)cc2)NC(=O)[C@H](C(C)C)NC(=O)[C@H](CCCNC(=N)N)NC(=O)[C@H](C)NC(=O)[C@H](CC(C)C)NC1=O [SEQ. ID. NO. 16] (HELM PEPTIDE1{[ac].R.C.M.L.A.R.V.Y.R.P.C.[am]}$PEPTIDE1,PEPTIDE1,3:R3-12:R3$$$V2.0)	102	121	16	0.29	7.29	–	–	–	–	–	–	–
CSCC[C@@H]1NC(=O)[C@@H](NC(=O)[C@H](CCCNC(=N)N)NC(C)=O)CSSC[C@@H](C(N)=O)NC(=O)[C@@H]2CCCN2C(=O)[C@H](CCCNC(=N)N)NC(=O)[C@H](Cc2ccc(O)cc2)NC(=O)[C@H](C(C)C)NC(=O)[C@H](CCCNC(=N)N)NC(=O)[C@H](CC(C)C)NC(=O)[C@H](CC(C)C)NC1=O [SEQ. ID. NO. 17]	74	123	1900	1.8	–	–	–	–	–	–	–	–
CSCC[C@@H]1NC(=O)[C@@H](NC(=O)[C@H](CCCNC(=N)N)NC(C)=O)CSSC[C@@H](C(N)=O)NC(=O)[C@@H]2CCCN2C(=O)[C@H](CCCNC(=N)N)NC(=O)[C@H](Cc2ccc(O)cc2)NC(=O)[C@H](C(C)C)NC(=O)[C@H](CCCNC(=N)N)NC(=O)[C@H](Cc2ccc3ccccc3c2)NC(=O)[C@H](CC(C)C)NC1=O [SEQ. ID. NO. 21]	105	7	14	–	< 5.00	–	–	–	–	–	–	–
CSCC[C@@H]1NC(=O)[C@@H](NC(=O)[C@H](CCCNC(=N)N)NC(C)=O)CSSC[C@@H](C(N)=O)NC(=O)[C@@H]2CCCN2C(=O)[C@H](CCCNC(=N)N)NC(=O)[C@H](Cc2ccc(O)cc2)NC(=O)[C@H](C(C)C)NC(=O)[C@H](CCCNC(=N)N)NC(=O)[C@H](CCCNC(=N)N)NC(=O)[C@H](CC(C)C)NC1=O [SEQ. ID. NO. 23] (HELM PEPTIDE1{[ac].R.C.M.L.R.R.V.Y.R.P.C.[am]}$PEPTIDE1,PEPTIDE1,3:R3-12:R3$$$V2.0)	38	7	0.7	–	< 5.00	–	–	–	–	–	–	–
CSCC[C@@H]1NC(=O)[C@@H](NC(=O)[C@H](CCCNC(=N)N)NC(C)=O)CSSC[C@@H](C(N)=O)NC(=O)[C@@H]2CCCN2C(=O)[C@H](CCCNC(=N)N)NC(=O)[C@H](Cc2ccc(O)cc2)NC(=O)[C@H](C(C)C)NC(=O)[C@H](CCCNC(=N)N)NC(=O)[C@H](CCCNC(N)=O)NC(=O)[C@H](CC(C)C)NC1=O [SEQ. ID. NO. 27]	68	91	42	0.3	6.04	–	–	–	–	–	–	–
CSCC[C@@H]1NC(=O)[C@@H](NC(=O)[C@H](CCCNC(=N)N)NC(C)=O)CSSC[C@@H](C(N)=O)NC(=O)[C@@H]2CCCN2C(=O)[C@H](CCCNC(=N)N)NC(=O)[C@H](Cc2ccc(O)cc2)NC(=O)[C@H](C(C)C)NC(=O)[C@H](CCCNC(=N)N)NC(=O)[C@H](CCC(=O)O)NC(=O)[C@H](CC(C)C)NC1=O [SEQ. ID. NO. 28]	22	21	–	–	–	–	practically inactive	–	practically inactive	< 5.00	–	–
CCCC[C@@H]1NC(=O)[C@@H](NC(=O)[C@H](N)CCCNC(=N)N)CSSC[C@@H](C(N)=O)NC(=O)[C@@H]2CCCN2C(=O)[C@H](CCCNC(=N)N)NC(=O)[C@H](Cc2ccc(O)cc2)NC(=O)[C@H](C(C)C)NC(=O)[C@H](CCCNC(=N)N)NC(=O)[C@H](CC(N)=O)NC(=O)[C@H](CC(C)C)NC1=O [SEQ. ID. NO. 32] (HELM PEPTIDE1{[dR].C.[Nle].L.N.R.V.Y.R.P.C.[am]}$PEPTIDE1,PEPTIDE1,2:R3-11:R3$$$V2.0)	–	–	–	–	–	–	–	–	potent and selective hMCH-1R agonists	–	–	–
CSCC[C@@H]1NC(=O)[C@@H](NC(=O)[C@@H](CCCNC(=N)N)NC(C)=O)CSSC[C@@H](C(N)=O)NC(=O)[C@@H]2CCCN2C(=O)[C@H](C)NC(=O)[C@H](Cc2ccc(O)cc2)NC(=O)[C@H](C(C)C)NC(=O)[C@H](CCCNC(=N)N)NC(=O)[C@H](CC(N)=O)NC(=O)[C@H](CC(C)C)NC1=O [SEQ. ID. NO. 33] (HELM PEPTIDE1{[ac].[dR].C.M.L.N.R.V.Y.A.P.C.[am]}$PEPTIDE1,PEPTIDE1,3:R3-12:R3$$$V2.0)	17	109	–	–	6.59	–	–	< 5.00	–	–	about 50 fold	5
